Consider two compounds from US8541462B2, “Tetrahydrocarbazole derivatives as ligands of G-protein coupled receptors” (AEterna Zentaris GmbH, priority 2007, dated 2013).

Where a name gives a salt, the structure may show the parent alone.

For data set [1], the target named is T1, LHRH receptor (endogenous GnRH receptor of alpha T3-1 cell line) (Mus musculus, UniProt Q01776).
T1 construct: alpha T3-1 cell line with endogenous GnRH receptor expression; endogenous in cells; host or cells: alpha T3-1 cells (intact cell suspension)
T1 sequence (Q01776 1-327): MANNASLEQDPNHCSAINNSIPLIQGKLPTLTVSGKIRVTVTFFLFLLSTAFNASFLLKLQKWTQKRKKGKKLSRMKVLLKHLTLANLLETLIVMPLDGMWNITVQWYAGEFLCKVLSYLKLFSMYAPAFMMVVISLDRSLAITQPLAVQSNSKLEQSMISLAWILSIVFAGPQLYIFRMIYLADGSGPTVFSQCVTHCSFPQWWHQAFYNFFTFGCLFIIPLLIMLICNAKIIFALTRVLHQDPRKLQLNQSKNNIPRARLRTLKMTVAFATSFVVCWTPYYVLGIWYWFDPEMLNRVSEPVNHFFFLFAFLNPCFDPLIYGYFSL
Description: LHRH-receptor binding assay (displacement of [125I] cetrorelix on alpha T3-1 cells). Conditions: WO 2006/005484-substance 75 = 100%. As for the experimental part:
For LHRH receptor binding studies, an assay system using alpha T3-1 cell line with endogenous GnRH receptor expression was employed (Windle et al., Mol. Endocrinol. 1990, 4(4): 597-603).
Iodinated cetrorelix was used as a tracer with about 80% of peptide capable of specific receptor association.
For displacement binding assays, the cells were incubated with approximately 200 pM [^125l] cetrorelix and different concentrations of unlabeled test compounds as competitor. The cell suspension in binding medium was layered on top of silicon/paraffin oil, incubated for 60 min at 37° C. and separated by centrifugation. The tips of the tubes containing the cell pellet were cut off, subsequently cell pellet and supernatant were analyzed by gamma-radiation analysis.
The amount of unspecific binding was determined by including unlabeled cetrorelix at 1 μM final concentration and was typically ≦10% of total binding. IC50 values were calculated by using the GraphPad Prism analysis program (GraphPad Software Inc.).

The nature of data set [2]: Metabolic stability testing in liver microsomes. Format: in vitro ADME. The following applies: mixed-gender human liver microsomes, 1 mg microsomal protein/mL, initial concentration 10 μM, 60 minutes at 37° C.; WO 2006/005484-substance 7 = 100%. Here is the method:
Subcellular fractions of different tissues can be prepared easily by ultracentrifugation. Most commonly these are prepared from the liver of animals and human donors to gain information about the potential hepatic clearance of compounds (first-pass elimination of drugs). Human or animal (e.g. dog, mouse, rat) subcellular fraction like liver microsomes, or possibly the fraction called S9 have therefore become a very commonly and widely used as an in vitro model to investigate mainly cytochrome P450 dependent phase I (but also phase II) metabolism that takes place in the liver.
In order to reflect the standard proportion of the enzymes in human and animal livers, liver microsomes are usually pooled from a number of […] of the same sex (or mixed-gender). By supplementing the liver microsomes with relevant cofactors and other components it is possible to investigate and distinguish between CYPs, flavin-containing monooxygenase (FMO) and UDP-glucuronosyltransferase (UGT) activities.
Selected compounds of the invention were tested for their stability in mixed-gender human liver microsomes and compared to pertinent prior art compounds.
Under the test conditions applied (1 mg microsomal protein/mL, initial concentration of 10 μM, and incubation for 60 minutes at 37° C.) the following normalized results were obtained.

A short description of data set [3]: Pharmacokinetic study (oral, cannulated rats, LC/MS of plasma). Format: in vivo, rat. Here is the method: Adult male Wistar rats weighing 278-290 g (Jinvier, France) were used in the study. Animals were housed in a temperature-controlled room (20-24° C.) and maintained in a 12 h light/12 h dark cycle. Food and water were available ad libitum.
For surgery, rats were anaesthetised with a ketamine (90 mg/kg)/xylazine (10 mg/kg) mixture, and cannulated with silicone tubing via the right jugular vein. Prior to the first blood sampling, animals were connected to a counterbalanced system and tubing to perform blood sampling in the freely moving rat.
Separate stock solutions (5 mg/ml) of compound 52 of the invention and prior art substance WO 2006/005484—substance 76 were prepared in Solutol HS 15/PEG300 (3:1). The whole process was performed under constant stirring. Half of the volume of the vehicle was added first. After sonication (5 minutes), the second half of the vehicle was added and the vials were again sonicated. All the solutions were clear and free of particles or agglomerates.
Immediately before application, the dosing mixture was prepared by adding equal volumes of the stock solutions to end up with a final concentration of 1 mg/ml for each compound. The mixture was applied orally to rats with an application volume of 5 ml/kg.
Blood samples (200 μl) were taken 1 hour before application and 1, 2, 4, 6, 8, 12 and 24 hours after. They were centrifuged at 650 g for 10 minutes at 4° C. and then the plasma was harvested and kept at −20° C. until LC/MS analysis.

Another data set relates to plasma testosterone. Description: Testosterone suppression experiment (plasma testosterone ELISA). Conditions: male Wistar rats, po in Solutol HS15/PEG300 (3:1), samples up to 24 h post-dose. Format: in vivo, rat. Here is the method:
Male Wistar rats weighing 248-296 g (Janvier, France) were used in the present study. Animals were housed in a temperature-controlled room (20-22° C.) and maintained in a 12 h light/12 h dark cycle. Food and water were available ad libitum.
Rats were anaesthetised with a ketamine (135 mg/kg)/xylazine (10 mg/kg) mixture, and cannulated with silicone tubing via the right jugular vein. Prior to the first blood sampling, animals were connected to a counterbalanced system and tubing, to perform blood sampling in the freely moving rat.
The dosing solutions were prepared immediately before application. […]
The concentrations of testosterone in the rat plasma samples were determined using the Testosterone ELISA (EIA-1559) from DRG Instruments according to the manufacturer's instructions. […] The plate was read within the next 30 min with a Spectramax Plus (Molecular Devices) at 450 nm. The concentration of testosterone in the samples was calculated from the standard curve and is inversely proportional to the optical density measured.
Due to the pulsatile release of testosterone in intact rats, two pre-treatment samples ere collected to establish baseline values prior the administration of the compound. […] The pre-treatment mean value was compared to the testosterone levels measured after application.

[4] abbreviates: rat, plasma, male Wistar rats, oral, 5 mg/kg, mixture of both compounds in Solutol HS 15/PEG300 (3:1).

`CCC(C)[C@H](NC(=O)Cc1ccccc1F)C(=O)N[C@]1(C(=O)N[C@H](C(=S)NCC2CCOCC2)C(C)CC)CCc2[nH]c3c(C(F)(F)F)cccc3c2C1` (stereo partly drawn) [Compound 52, (R)-3-{(S)-2-[2-(2-Fluoro-phenyl)-acetylamino]-3-methyl-pentanoylamino}-8-trifluoromethyl-2,3,4,9-tetrahydro-1H-carbazole-3-carboxylic acid {(S)-2-methyl-1-[(tetrahydro-pyran-4-ylmethyl)-thiocarbamoyl]-butyl}-amide]: the “Normalized Affinity” value in data set [1] came out at 218%. Moreover, in data set [2], the Normalized microsomal stability is listed as 178%. For the same compound, in data set [3] (setting [4]), the AUC(0-t) was 306 ng·h/mL, the Cmax came to 38.2 ng/mL and the Tmax came out at 4 h. In addition, the “higher AUC compared to the pertinent prior art substance (indicative for bioavailability)” value in data set [3] (versus WO 2006/005484-substance 76, rats, oral 5 mg/kg) is on record as “more than 300%”.
For `CCC(C)[C@H](NC(=O)Cc1ccccc1F)C(=O)N[C@]1(C(=O)N[C@H](C(=S)NCCN2CCOCC2)C(C)CC)CCc2[nH]c3c(C(F)(F)F)cccc3c2C1` (stereo partly drawn) [compound 54 (TFA salt), (R)-3-{(S)-2-[2-(2-Fluoro-phenyl)-acetylamino]-3-methyl-pentanoylamino}-8-trifluoromethyl-2,3,4,9-tetrahydro-1H-carbazole-3-carboxylic acid [(S)-2-methyl-1-(2-morpholin-4-yl-ethylthiocarbamoyl)-butyl]-amide], the “Normalized Affinity” value in data set [1] came to 247%. Moreover, the “mean plasma testosterone concentration over time (FIG. 2)” value with plasma testosterone is on record as “testosterone suppression”.
